Here are results for 7 compounds from US7816319B2, “Methods and products for manipulating uncoupling protein expression” (University of Vermont and State Agricultural College, priority 1999, dated 2010).

For data set [1] the following is noted: metabolite formed from 5-FU; cited from earlier work.
The conditions of data set [2]: 5-FU that is taken up by the cell; cited from earlier work.
For another data set, the system named is L1210 DDP. The data set can be described thus: Fas expression after treatment with staurosporin or adriamycin. Type of data set: cell-based. From the text:
(§1) 4. Treatment of L1210 DDP cells with staurosporin restores Fas expression and susceptibility to drug-induced apoptosis: L1210, but not L1210 DDP, undergo apoptotic cell death. We treated L1210 or L1210 DDP cells with the staurosporin, which inhibits protein kinase C and increases mitochondrial membrane potential, or an anti-cancer agent to which both cells are sensitive, adriamycin. Fas expression was increased or induced on both L1210 and L1210 DDP, respectively, in the presence of staurosporin or adriamycin. The L1210 DDP changed morphologically and began to divide rapidly, changes which appeared to correspond with a reversion back to the phenotype of the L1210 cells.

Data set [3] relates to L1210. Described as above. Type of data set: cell-based.
Description: as §1

For a further data set, the system named is L1210/DDP. In words: Analysis of DNA fragments after methotrexate treatment. Type of data set: cell-based. The note with it: 10^-8 M methotrexate, 24 hours. As to the method:
(§2) Additionally, L1210 and L1210/DDP cells were treated with 10^-8 M methotrexate for 24 hours. […] The forward scatter low populations took up ethidium bromide differentially. The L1210 cells took up a moderate amount. […] This latter phenotype—loss in forward scatter and membrane permeability with no “DNA laddering”—is the hall mark of oncosis.

For data set [4], the system named is L1210. The description is as above. Type of data set: cell-based. As to conditions: 10^-8 M methotrexate, 24 hours. As to the method:
as §2

Data set [5] concerns Fas deficient lymphocytes. In words: Methotrexate-induced apoptosis in splenic lymphocytes, viability by flow cytometry and trypan blue. The note with it: splenocytes of C57BL/6 lpr or gld vs wild type; 5×10^−8 M methotrexate, 18 or 32 hours. It is filed as cell-based, mice. As to the method:
8. Fas Deficient Lymphocytes are also drug resistant to methotrexate: We isolated splenic lymphocytes from aged-matched wild type C57BL/6 mice and C57BL6.1pr and C57BL.gld. Splenocytes from C57BL/6 lpr or gld animals were isolated, red cells depleted, and single cell suspensions prepared. Cells were cultured in the absence or presence of 5×10^−8 M methotrexate for 18 or 32 hours. Cells were harvested and viability was determined by flow cytometric analysis and confirmed with trypan blue exclusion.
(In general: Flow cytometry measures light scatter and fluorescence of single cells or particles in a stream.)

For data set [6], the system named is B16 melanoma cells. The note with it: increasing concentrations of sodium acetate. The procedure:
B16 cells were cultured in the in the presence of different concentrations of sodium acetate and Fas expression was measured.
B16 cells also were cultured in the presence of different concentrations of sodium acetate and Fas expression was measured.

Data set [7] deals with B16 melanoma cells. The note with it: increasing concentrations of sodium acetate. As to the method:
Again cells were cultured in the presence of varying concentration of sodium acetate.
This is another data set of the same source.

For data set [8], the system named is L1210DDP. The note with it: graded concentrations of sodium acetate. As to the method: (§3) Sodium Acetate as a mitochondrial modifying agent was examined. L1210 or L1210DDP cells were cultured in the presence of graded concentrations of sodium acetate in the medium. Cells were stained with Jo2.2, a fluorescein conjugated anti-Fas antibody, or an isotype control. Cell surface staining was measured flow cytometrically. The percentage of mean fluorescence intensity over the isotype control was plotted.

For data set [9], the system named is L1210. The note with it: graded concentrations of sodium acetate. As to the method: as §3
Data set [10] has as its system L1210DDP. From the text: (§4) The effects of acetate on susceptibility to Fas-dependent cell death were also examined.
In data set [11] the test system is L1210.
Description: as §4

In the next data set the test system is MDR cells. The data set can be described thus: Inhibition of lysosomal UCP translocation. It is filed as cell-based. The procedure:
MDR cells, which are plasma membrane UCP negative and lysosomal UCP positive were treated with tunicamycin. […] These same cells were treated with tunicamycin and an-anti-UCP2 antibody.

As for `NCC(F)C(=O)O` (stereo not drawn) [2-fluoro-β-alanine (FBAL), 2-fluoro-β-alanine], in data set [1], the toxicity entry is “neurotoxic and cardiotoxic”.

As to `O=c1[nH]cc(F)c(=O)[nH]1` [5-FU, 5-Fluorouracil], in [2], the half-life in vivo result is “about 18 minutes”.

With `COc1cccc2c1C(=O)c1c(O)c3c(c(O)c1C2=O)C[C@@](O)(C(=O)CO)C[C@@H]3O[C@H]1C[C@H](N)[C@H](O)[C@H](C)O1` [adriamycin], the Fas expression result in the data set with L1210 DDP is reported as “induced”; in the data set on L1210 [3] it was “increased”.

`CN(Cc1cnc2nc(N)nc(N)c2n1)c1ccc(C(=O)N[C@@H](CCC(=O)O)C(=O)O)cc1` [methotrexate]: the entries for the “DNA laddering (nucleosome sized fragments)” value with L1210/DDP and in the data set with L1210 [4] were “did not” and “produced a ladder of nucleosome sized fragments indicative of apoptosis”, respectively. Besides, in data set [5], the “susceptibility to methotrexate-induced apoptosis” value is reported as “decreased susceptibility”.

As to `CC(=O)[O-].[Na+]` [sodium acetate], the “levels of cell surface Fas” value in the data set with B16 melanoma cells [6] (non-permeabilized B16) is recorded as “increased”. The “levels of intracellular Fas” value in the data set on B16 melanoma cells [6] (permeabilized B16) is recorded as “declined”. For the same compound, the glucose oxidation entry with B16 melanoma cells [7] is listed as “decreased”. In addition, the glucose utilization result in the data set on B16 melanoma cells [7] is reported as “decreased”. Also, the “cell surface Fas expression” value with L1210DDP [8] and with L1210 [9] was “increases cell surface Fas expression” in each case. The “susceptibility to Fas-dependent cell death” value with L1210DDP [10] and in the data set with L1210 [11] was “resulted in susceptibility to Fas-dependent cell death” each time.

As to `CN[C@@H]1C[C@H]2O[C@@](C)([C@@H]1OC)n1c3ccccc3c3c4c(c5c6ccccc6n2c5c31)C(=O)NC4` [staurosporin], the Fas expression result in the data set on L1210 DDP is recorded as “induced”; in the data set on L1210 [3] it was “increased”.

With tunicamycin, the “localization of intracellular UCP” value with MDR cells was “shift in the intracellular UCP from the lysosome and mitochondria to the plasma membrane”.
